From patent publication US12636271B2, “Combination comprising N-acetyl-L-cysteine and its use” (IASOMAI AB, priority 2011, dated 2026)

Tests used:
HL60 cells = assay: Antioxidant effect against menadione oxidative stimulus, CM-H2DCFDA fluorescence; assay type: cell-based, human; conditions: concentrations as in FIGS. 5-7
Procedure: The human lymphoblastoid HL60 and the proerythoblastoid K562 cell lines were used, grown at 37° C. in RPMI 1640 medium (Invitrogen, Gibco, Milano, Italy), supplemented with 10% fetal bovine serum, 5 μg/ml penicillin, 5 μg/ml streptomycin, 2 mM glutamine, and routinely subcultured three times a week. Cells were treated either with menadione alone (control), with NAC only, with NAC+Se-methionine (SeMet), with NAC+Mel, or with NAC+SeMet+Mel. In cases of SeMet supplementation, such supplementation was performed two days before experiments, by using a SeMet solution in buffer (concentrations as indicated in description of FIGS. 4-7). In cases of Mel supplementation, such supplementation was performed 20 hours before experiments, by using a solution in ethanol (concentrations as indicated in description of FIGS. 4-7). Ethanol concentration in growth medium was <1.3% and controls only with this solvent were also grown in parallel.
The effect of NAC, Mel, SeMet and of a combination of these substances in protecting the cells against an oxidative stimulus was detected by using the fluorescent probe 5-(and-6)-chloromethyl-2′,7′-dichlorodihydrofluorescein diacetate, acetyl ester (CM-H2DCFDA) (Invitrogen, Molecular Probes). CM-H2DCFDA is a cell-permeant indicator for reactive oxygen species that is not fluorescent until removal of its acetate groups by intracellular esterases, and oxidation within the cell. The increase in hydroperoxides (mainly H2O2) within the cell is thus monitored by increase in fluorescence. […]
Cells were counted, and care was taken to keep the ratio between cells and the fluorescent probe constant. […] Two μ1 of a solution of CM-H2DCFDA in DMSO were then added and the fluorescence intensity read versus time. After the first 200 sec of reading, a proper aliquot of NAC solution in phosphate buffer (concentrations as indicated in description of FIGS. 4-7), and 10 μl of a 0.1 M solution of menadione in ethanol were added, and the fluorescence intensity reading continued. During intensity readings, samples were subjected to continuous mild stirring. […]

[1] = tested on: patients suffering from fatigue; assay: Fatigue trial, rated intensity before and after treatment; assay type: in vivo, human; conditions: group of 20 patients
Description: In a method, conducted in a similar manner to that described in the previous Examples 6 and 7, and in accordance with embodiments of this disclosure a medical product comprising NAC, SeMet and Mel in accordance with embodiments was given to a plurality of groups of patients in the treatment of fatigue. The method of treating fatigue comprises administering to a patient in need thereof, a medical product consisting of one or more excipients and active agents consisting of (i) N-acetyl-L-cysteine; (ii) selenium in the form of selenomethionine; and (iii) melatonin and/or physiologically acceptable salts thereof. Fatigue may be related and due to anxiety, and/or to sporadic insomnia or have other independent causes. Fatigue is defined as a state of tiredness that remain despite rest or sleep, and that tend to impair cognitive and/or physical ability and performance.
In a trial the NAC, SeMet and Mel medical product, herein also called NAC-factor 3, was administered to a group of patients in a set-up to compare the effect of placebo, NAC and the medical product consisting of NAC, SeMet and Mel in treatment of fatigue.
(§1) The patients rated their experienced intensity of fatigue before and after being exposed to medication with one of placebo, NAC and the medical product consisting of NAC, SeMet and Mel (in short NACSeMel), respectively. The subjective intensity was rated by the patients using a 5 graded verbal rating scale ranging from None/Ignorable=0, Slight=1, Moderate=2, Great=3, Excruciating=4, where the corresponding numbers 0-4 are used to illustrate the responses in accompanying graphs.
(§2) In studying the results of the rating, the change in rating that the group delivered was expressed as a measure of the group's relative position RP in order to assess whether there was a systematic change in position on the rating scale. The relative position, i.e. the change in rating is negative if the rating indicates less intensity after exposure to treatment compared to before treatment, and positive if the rating indicates higher intensity after exposure to treatment. A range of values for the relative position RP was calculated for a 95% confidence interval CI.

[2] = tested on: patients suffering from obsessive compulsive disorder; assay: Anxiety trial, rated pain intensity before and after treatment; assay type: in vivo, human; conditions: n = 7
Procedure: (§3) In a trial the NAC, SeMet and Mel medical product, herein also called NAC-factor 3, was administered to the groups of patients in a set-up to compare the anxiolytic effect of placebo, NAC and the medical product consisting of NAC, SeMet and Mel in anxiolysis. The groups of patients were ordered according to the following different causes of anxiety: Sporadic anxiety (i.e. healthy patients) (SA), Social phobia (SP), Agoraphobia (AP), Panic disorder (PD), Generalized anxiety disorder (GAD), Obsessive-compulsive disorders (OCD), and Posttraumatic stress disorder (PTSD).
as §1, with “of pain from the anxiety” for “of fatigue”, “subjective pain-intensity” for “subjective intensity”
as §2, with “less pain” for “less”, “higher pain” for “higher”
(§4) The corresponding treatment design as described above was used with patients rating the pain intensity for specific causes of anxiety, viz. Recurrent sporadic social anxiety, Social Phobia/Agoraphobia, Panic disorder, Generalized anxiety disorder, Obsessive compulsive disorder and Posttraumatic stress disorder. The results are presented in the following Table 3 and in FIG. 11-FIG. 16.

[3] = tested on: patients suffering from generalized anxiety disorder; assay: as above; assay type: in vivo, human; conditions: n = 8
Procedure: as §3
as §1, with “of pain from the anxiety” for “of fatigue”, “subjective pain-intensity” for “subjective intensity”
as §2, with “less pain” for “less”, “higher pain” for “higher”
as §4

[4] = tested on: patients suffering from recurrent sporadic social anxiety; assay: as above; assay type: in vivo, human; conditions: n = 12
Procedure: as §3
as §1, with “of pain from the anxiety” for “of fatigue”, “subjective pain-intensity” for “subjective intensity”
as §2, with “less pain” for “less”, “higher pain” for “higher”
as §4

[5] = tested on: patients suffering from panic disorder; assay: as above; assay type: in vivo, human; conditions: n = 7
Procedure: as §3
as §1, with “of pain from the anxiety” for “of fatigue”, “subjective pain-intensity” for “subjective intensity”
as §2, with “less pain” for “less”, “higher pain” for “higher”
as §4

[6] = tested on: patients suffering from social phobia/agoraphobia; assay: as above; assay type: in vivo, human; conditions: n = 6
Procedure: as §3
as §1, with “of pain from the anxiety” for “of fatigue”, “subjective pain-intensity” for “subjective intensity”
as §2, with “less pain” for “less”, “higher pain” for “higher”
as §4

[7] = tested on: patients suffering from posttraumatic stress disorder; assay: as above; assay type: in vivo, human; conditions: n = 5
Procedure: as §3
as §1, with “of pain from the anxiety” for “of fatigue”, “subjective pain-intensity” for “subjective intensity”
as §2, with “less pain” for “less”, “higher pain” for “higher”
as §4

[8] = tested on: patients suffering from varying kinds of anxiety; assay: as above; assay type: in vivo, human; conditions: n = 20
Description: In a method in accordance with embodiments of this disclosure a medical product comprising NAC, SeMet and Mel in accordance with embodiments was given to a plurality of groups of patients in the treatment of anxiety. The method of treating an anxiety disorder comprises administering to a patient in need thereof, a medical product consisting of one or more excipients and active agents consisting of (i) N-acetyl-L-cysteine; (ii) selenium in the form of selenomethionine; and (iii) melatonin and/or physiologically acceptable salts thereof.
as §3
as §1, with “of pain from the anxiety” for “of fatigue”, “subjective pain-intensity” for “subjective intensity”
as §2, with “less pain” for “less”, “higher pain” for “higher”

K562 cells = assay: Antioxidant effect against menadione oxidative stimulus, CM-H2DCFDA fluorescence; assay type: cell-based, human; conditions: 0.2 mM menadione, 0.4 mM NAC, 0.2 mM SeMet, 2 mM Mel (FIG. 4)
Procedure: The human lymphoblastoid HL60 and the proerythoblastoid K562 cell lines were used, grown at 37° C. in RPMI 1640 medium (Invitrogen, Gibco, Milano, Italy), supplemented with 10% fetal bovine serum, 5 μg/ml penicillin, 5 μg/ml streptomycin, 2 mM glutamine, and routinely subcultured three times a week. Cells were treated either with menadione alone (control), with NAC only, with NAC+Se-methionine (SeMet), with NAC+Mel, or with NAC+SeMet+Mel. In cases of SeMet supplementation, such supplementation was performed two days before experiments, by using a SeMet solution in buffer (concentrations as indicated in description of FIGS. 4-7). […]
The effect of NAC, Mel, SeMet and of a combination of these substances in protecting the cells against an oxidative stimulus was detected by using the fluorescent probe 5-(and-6)-chloromethyl-2′,7′-dichlorodihydrofluorescein diacetate, acetyl ester (CM-H2DCFDA) (Invitrogen, Molecular Probes). […] The increase in hydroperoxides (mainly H2O2) within the cell is thus monitored by increase in fluorescence. […]
Cells were counted, and care was taken to keep the ratio between cells and the fluorescent probe constant. […] Two μ1 of a solution of CM-H2DCFDA in DMSO were then added and the fluorescence intensity read versus time. […] During intensity readings, samples were subjected to continuous mild stirring. […]

[9] = tested on: patients suffering from sporadic insomnia; assay: Sporadic insomnia trial, rated intensity before and after treatment; assay type: in vivo, human; conditions: group of 24 patients
[10] = negative = less intensity after treatment

C[Se]CC[C@H](N)C(=O)O [SeMet, selenomethionine]
oxidative response (slope of DCFDA fluorescence intensity increase) after menadione (HL60 cells): unfavorable pro-oxidant effect

COc1ccc2[nH]cc(CCNC(C)=O)c2c1 [Mel, melatonin]
oxidative response (slope of DCFDA fluorescence intensity increase) after menadione (HL60 cells): unfavorable pro-oxidant effect

CC(=O)N[C@@H](CS)C(=O)O [NAC, N-acetyl-L-cysteine]
number of patients that rated increased level of fatigue [1]: 3 patients
number of patients that rated lower fatigue [1]: 9 patients
number of patients that rated unchanged intensity of fatigue [1]: 8 patients
patients that rated increased level of fatigue [1]: 15%
patients that rated lower fatigue [1]: 45%
patients that rated unchanged intensity of fatigue [1]: 40%
relative position RP [1, 10]: −0.26 (95% CI −0.49 to −0.03)
oxidative response (slope of DCFDA fluorescence intensity increase) after menadione (HL60 cells): relevant reduction in the kinetics of this intensity increase
number of patients that rated higher [2]: 1 patients
number of patients that rated lower [2]: 4 patients
number of patients that rated unchanged level [2]: 2 patients
relative position RP [2]: RP −0.27
number of patients that rated lower [3]: 7 patients
number of patients that rated unchanged level [3]: 1 patients
relative position RP [3]: RP −0.81
number of patients that rated lower [4]: 9 patients
number of patients that rated unchanged level [4]: 2 patients
relative position RP [4]: RP −0.46
number of patients that rated lower [5]: 3 patients
number of patients that rated unchanged level [5]: 4 patients
relative position RP [5]: RP −0.35
number of patients that rated lower [6]: ↓3, ~3 patients
number of patients that rated unchanged level [6]: ↓3, ~3 patients
relative position RP [6]: RP −0.31
number of patients that rated lower [7]: 3 patients
number of patients that rated unchanged level [7]: 2 patients
relative position RP [7]: RP −0.60
number of patients that rated higher pain intensity after treatment [8]: 5 patients
number of patients that rated lower pain intensity after treatment [8]: 9 patients
patients that rated higher pain intensity after treatment [8]: 25%
patients that rated lower pain intensity after treatment [8]: 40%
patients that rated unchanged level [8]: 35%
oxidative response (slope of DCFDA fluorescence intensity increase) after menadione (K562 cells): relevant reduction in the kinetics of this intensity increase
number of patients that rated lower sporadic insomnia [9]: 15 patients
number of patients that rated unchanged intensity [9]: 9 patients
patients that rated lower sporadic insomnia [9]: 62%
patients that rated unchanged intensity [9]: 38%
relative position RP [9, 10]: −0.37 (95% CI −0.49 to −0.25)
